{"source": "paper PMC4861708", "about": "(Frontiers in Cell and Developmental Biology, 2016)", "key": {"[1]": {"test": "in vitro", "details": "mouse, mouse serum", "procedure": "Peptide solutions (1 g/L) were added to mouse serum to obtain final concentrations of 70 mg/L peptide and incubated under constant shaking at 37°C. After 0, 1, 2, 3, and 6 h aliquots (95 μL) were precipitated with aqueous TCA (25 μL, 15% w/v), incubated for 10 min on ice, and centrifuged (5 min, 12,000 × g, Eppendorf mini spin centrifuge). An aliquot of the supernatant (95 μL) was neutralized with sodium hydroxide (8 μL, 1 mol/L) and diluted with aqueous acetonitrile solution (3% acetonitrile, 0.1% TFA; 200 μL). Peptides were quantified by the peak areas obtained by analytical RP-HPLC on a Jupiter C18-column (ID: 2 mm) using a linear aqueous acetonitrile gradient with 0.1% (v/v) TFA (absorbance recorded at 214 nm). Peak areas of all time points were normalized to the initial peak area obtained after “0 min incubation” (= 100%). Experiments were carried out as triplicates in parallel and half-life times were calculated using GraphPad Prism 5.0."}, "[2]": {"test_system": "HeLa cells", "test": "Flow cytometry, endocytosis inhibition with dynasore", "format": "cell-based", "details": "dynasore 0.2 mmol/L 45 min, peptide 40 μmol/L 30 min", "procedure": "Fresh colorless medium (150 μL) supplemented with either dynasore (0.2 mmol/L) dissolved in DMSO (final concentration of 0.2% v/v) or DMSO (0.2% v/v) as vehicle control was added. After 45 min (37°C) the supernatant was replaced by fresh medium supplemented with either dynasore or DMSO at the same concentrations (144 μL), Cf-labeled peptide added (6 μL, 1 mmol/L in water), and incubated (30 min, 37°C). Cells were fixed and stained with Hoechst 33342 as described above.\nHeLa cells (50,000 for endocytosis inhibition and 70,000 for uptake kinetics) suspended in DMEM/F-12 medium (300 μL; see above) were seeded into 48-well plates (PS, sterile, flat bottom) and incubated (23 ± 1 h) using the conditions described above. Cells were washed twice with PBS (300 μL/well) and fresh medium was added (144 μL).\nCell cultures were prepared and incubated in the presence of dynasore, as described for microscopy. Cells were washed, treated with trypsin, and fixed as described above, dissolved in FACS buffer, and analyzed the same day."}, "[3]": {"test_system": "E. coli DSM 1103", "test": "Transmission electron microscopy, morphological changes", "format": "cell-based, Escherichia coli", "details": "1 h", "procedure": "Peptide-bacteria mixtures were fixed (2% glutaraldehyde, 5 mmol/L CaCl2, 10 mmol/L MgCl2 in 0.1 mol/L sodium cacodylate buffer, pH 7.4) overnight at 4°C. […] Samples were rinsed with distilled water (5 × 10 min), incubated with aqueous uranylacetate (0.5% w/v) for 1 h at 4°C, washed with distilled water (3 × 10 min), and embedded in Epon. The hardened blocks were sectioned (50 nm) on a UCT ultramicrotome (Leica, Vienna, Austria), stained with uranyl acetate and lead citrate on an AC20 system (Leica), and visualized at a Tecnai 12 electron microscope (FEI, Eindhoven, The Netherlands) at 80 kV. Morphological effects were quantified on average for 25 cells per condition."}, "[4]": {"test_system": "HEK293 cells", "test": "in vitro", "format": "cell-based, human", "details": "24 h", "procedure": "(§1) Human embryonic kidney (HEK293) and HeLa cells were cultured in Dulbecco's modified Eagle's/Ham's F-12 medium [DMEM/F-12 (1:1)] supplemented with FBS (10% v/v), penicillin, and streptomycin (1000 units each). Primary rat cardiomyocytes (Innoprot, Elexalde Derio, Spain) were grown in medium supplemented with FBS (20% v/v), horse serum (5% v/v), L-glutamine (2 mmol/L), sodium pyruvate (2 mmol/L), MEM non-essential amino acids (Gibco, 0.1 mmol/L), penicillin, and streptomycin (1000 units each). Surfaces for cardiomyocyte growth were coated with attachment factor first. Cells (20,000/well) were seeded into a 96-well plate (PS, sterile, flat bottom), incubated for 24 h (37°C, 5% CO2), and washed twice with PBS (100 μl/well) prior to adding colorless medium (88 μL) and peptide solution (12 μL; 5, 2.5, 1.25, […], and 0.625 g/L in PBS). Positive controls were triton X-100 (1%, v/v) and melittin (60 mg/L) as lytic peptide, whereas PBS (12%, v/v) served as negative control. After an incubation period of 24 h, supernatant (25 μL) was mixed with lactate dehydrogenase (LDH) substrate (175 μL; 0.57 mmol/L sodium pyruvate, 0.24 mmol/L NADH disodium salt, 32 mmol/L potassium dihydrogen phosphate, 66 mmol/L dipotassium phosphate) in 96-well plates (PS, sterile, flat bottom). Absorbance was recorded at 340 nm every 3 min for 30 min on the Paradigm microplate reader. Due to the total release of LDH upon triton X-100 treatment, the control contained high LDH concentrations resulting in a fast substrate turnover that was only linear for the first 6 min.\n(§2) The MTT cell viability assay relied on the same cell culture. Remaining medium was replaced by a mixture of fresh colorless medium (100 μL) and MTT (10 μL; 5 g/L in PBS) and incubated for 4 h (37°C, 5% CO2). A solution of sodium dodecyl sulfate (100 μL; 10%, w/v) dissolved in hydrochloric acid (10 mmol/L) was added, incubated (16 h), and the absorbance recorded at 590 nm relative to the reference at 650 nm (Paradigm microplate reader). The relative cell viability was calculated by [(ODPeptide − ODTriton)/(ODPBS − ODTriton)] × 100% and half-maximal inhibitory concentrations (IC50) with an Excel-template from cell biology protocols (www.sciencegateway.org/ protocols/cellbio/drug/hcic50.htm). For statistical analysis an unpaired t-test was applied using GraphPad Prism 5.0."}, "[5]": {"test": "in vitro", "format": "cell-based, human", "details": "human", "procedure": "as §1, §2"}}, "note": "Where a SMILES comes first, the peptide text is derived from it. [ ]: non-standard residue; d: D form. The star is where a group is joined. Orn(α-tetramethylguanidino) = CN(C)C(=N[C@@H](CCCN)C(=O)*)N(C)C; Orn = NCCC[C@H](N)C(=O)O"}
{"smiles": "CC[C@H](C)[C@H](NC(=O)[C@H](CCCN)N=C(N(C)C)N(C)C)C(=O)N[C@@H](CCCN)C(=O)N[C@H](C(=O)N[C@@H](CCCN)C(=O)N[C@@H](CCCNC(=N)N)C(=O)N1CCC[C@H]1C(=O)N[C@H](C(=O)N[C@@H](Cc1ccc(O)cc1)C(=O)N[C@@H](CCCN)C(=O)N1CCC[C@H]1C(=O)N[C@@H](CCCNC(=N)N)C(=O)N1CCC[C@H]1C(=O)N[C@@H](CCCNC(=N)N)C(=O)N1CCC[C@H]1C(=O)N1CCC[C@H]1C(=O)N[C@@H](Cc1c[nH]cn1)C(=O)N1CCC[C@H]1C(=O)N[C@@H](CCCNC(=N)N)C(=O)N[C@@H](CC(C)C)C(=O)O)C(C)C)[C@@H](C)CC", "note": "[Api795, gu-O(IO)2RPVYOPRPRPPHPRL-OH] ({Orn(α-tetramethylguanidino)}-I[Orn]I[Orn]RPVY[Orn]PRPRPPHPRL-OH)", "values": [{"measurement": "half-life at 70 mg/L", "setting": "[1]; Half-life time against serum proteases, serum (abstract)", "result": "> 5", "unit": "h"}, {"measurement": "half-life at 70 mg/L", "setting": "[1]; Half-life time mouse serum, 37°C", "result": 5.9, "unit": "h"}, {"measurement": "Drop of GeoMean fluorescence (uptake) in the presence of dynasore vs vehicle control", "setting": "[2]", "result": 80, "unit": "%"}, {"measurement": "Cell: r, ruptured", "setting": "[3]; 8 µg/mL", "result": 0, "unit": "%"}, {"measurement": "DNA/Ribosomes relocalized", "setting": "[3]; 8 µg/mL", "result": 0, "unit": "%"}, {"measurement": "Fragments: +++, long and thick", "setting": "[3]; 8 µg/mL", "result": 0, "unit": "%"}, {"measurement": "Fragments: ++, long and thin", "setting": "[3]; 8 µg/mL", "result": 23, "unit": "%"}, {"measurement": "Fragments: +, small and thin", "setting": "[3]; 8 µg/mL", "result": 63, "unit": "%"}, {"measurement": "Fragments: -, no", "setting": "[3]; 8 µg/mL", "result": 13, "unit": "%"}, {"measurement": "Fragments: LV, large vesicles", "setting": "[3]; 8 µg/mL", "result": 0, "unit": "%"}, {"measurement": "Membrane: i, intact", "setting": "[3]; 8 µg/mL", "result": 3, "unit": "%"}, {"measurement": "Membrane: w, wrinkled", "setting": "[3]; 8 µg/mL", "result": 97, "unit": "%"}, {"measurement": "Vesicle release weak", "setting": "[3]; 8 µg/mL", "result": 30, "unit": "%"}, {"measurement": "Cell: r, ruptured", "setting": "[3]; 32 µg/mL", "result": 0, "unit": "%"}, {"measurement": "DNA/Ribosomes relocalized", "setting": "[3]; 32 µg/mL", "result": 0, "unit": "%"}, {"measurement": "Fragments: +++, long and thick", "setting": "[3]; 32 µg/mL", "result": 0, "unit": "%"}, {"measurement": "Fragments: ++, long and thin", "setting": "[3]; 32 µg/mL", "result": 10, "unit": "%"}, {"measurement": "Fragments: +, small and thin", "setting": "[3]; 32 µg/mL", "result": 57, "unit": "%"}, {"measurement": "Fragments: -, no", "setting": "[3]; 32 µg/mL", "result": 33, "unit": "%"}, {"measurement": "Fragments: LV, large vesicles", "setting": "[3]; 32 µg/mL", "result": 0, "unit": "%"}, {"measurement": "Membrane: i, intact", "setting": "[3]; 32 µg/mL", "result": 7, "unit": "%"}, {"measurement": "Membrane: w, wrinkled", "setting": "[3]; 32 µg/mL", "result": 93, "unit": "%"}, {"measurement": "Vesicle release weak", "setting": "[3]; 32 µg/mL", "result": 43, "unit": "%"}, {"measurement": "Cell: r, ruptured", "setting": "[3]; 128 µg/mL", "result": 0, "unit": "%"}, {"measurement": "DNA/Ribosomes relocalized", "setting": "[3]; 128 µg/mL", "result": 0, "unit": "%"}, {"measurement": "Fragments: +++, long and thick", "setting": "[3]; 128 µg/mL", "result": 0, "unit": "%"}, {"measurement": "Fragments: ++, long and thin", "setting": "[3]; 128 µg/mL", "result": 30, "unit": "%"}, {"measurement": "Fragments: +, small and thin", "setting": "[3]; 128 µg/mL", "result": 53, "unit": "%"}, {"measurement": "Fragments: -, no", "setting": "[3]; 128 µg/mL", "result": 17, "unit": "%"}, {"measurement": "Fragments: LV, large vesicles", "setting": "[3]; 128 µg/mL", "result": 0, "unit": "%"}, {"measurement": "Membrane: i, intact", "setting": "[3]; 128 µg/mL", "result": 17, "unit": "%"}, {"measurement": "Membrane: w, wrinkled", "setting": "[3]; 128 µg/mL", "result": 83, "unit": "%"}, {"measurement": "Vesicle release weak", "setting": "[3]; 128 µg/mL", "result": 47, "unit": "%"}, {"measurement": "Cell: r, ruptured", "setting": "[3]; 512 µg/mL", "result": 0, "unit": "%"}, {"measurement": "DNA/Ribosomes relocalized", "setting": "[3]; 512 µg/mL", "result": 30, "unit": "%"}, {"measurement": "Fragments: +++, long and thick", "setting": "[3]; 512 µg/mL", "result": 0, "unit": "%"}, {"measurement": "Fragments: ++, long and thin", "setting": "[3]; 512 µg/mL", "result": 37, "unit": "%"}, {"measurement": "Fragments: +, small and thin", "setting": "[3]; 512 µg/mL", "result": 63, "unit": "%"}, {"measurement": "Fragments: -, no", "setting": "[3]; 512 µg/mL", "result": 0, "unit": "%"}, {"measurement": "Fragments: LV, large vesicles", "setting": "[3]; 512 µg/mL", "result": 0, "unit": "%"}, {"measurement": "Membrane: i, intact", "setting": "[3]; 512 µg/mL", "result": 33, "unit": "%"}, {"measurement": "Membrane: w, wrinkled", "setting": "[3]; 512 µg/mL", "result": 67, "unit": "%"}, {"measurement": "Vesicle release weak", "setting": "[3]; 512 µg/mL", "result": 60, "unit": "%"}, {"measurement": "IC50 on cell viability", "setting": "[4]", "result": ">600", "unit": "µg/mL"}, {"measurement": "viability at 24 h, 0.6 g/L", "setting": "[5]", "result": "~60", "unit": "%"}]}
